Results taken from patent publication US20140314752A1, “METHODS FOR TREATING CANCER USING TOR KINASE INHIBITOR COMBINATION THERAPY” (Signal Pharmaceuticals, LLC, priority 2013, published 2014).

Legend:
Assay type in all cases: cell-based, human
[1] = system: Lenalidomide-resistant H929 cell lines (H929 R10-1 through 4); experiment: Anti-proliferative effect on lenalidomide-resistant H929 cell lines; details: lenalidomide-resistant H929 lines with ~50% reduction in cereblon protein
Method: Cell density and viability were monitored using the Vi-cell XR cell viability analyzer (Beckman Coulter). Once cell viability was >90% and cell density was ˜5×10^5 cells/mL (log phase), the cells were incubated at the indicated concentrations of a TOR kinase inhibitor and/or second active agent at a final concentration of 0.1% vehicle (DMSO). For combination studies, the TOR kinase inhibitor and the second active agent were simultaneously added to cells in triplicate. Cell proliferation was determined after 5 days of treatment by flow cytometry on unfixed cells and using 7-aminoactinomycin D (7AAD) (Molecular Probes, Carlsbad, Calif., USA) exclusion (0.25% final dye concentration) for viability assessment. Flow cytometry was utilized to gate on the target cells and to measure 7AAD negative and 7AAD positive cells. Stained cells were analyzed on a FACS Array flow cytometer with standard BD FACS Array System software (BDBiosciences, Palo Alto, Calif.). The percentage of surviving cells (7AAD negative) was calculated relative to cells treated with vehicle (DMSO) control. For single compound treatments (TOR kinase inhibitor and second active agents separately), the average values from triplicates were plotted to obtain IC50 values using software XLfit from IDBS. […]

SK-Hep-1 cells = experiment: Anchorage independent growth (colony formation) assay; details: single agent, concentrations of 0.1 to 100 μM
Method: (§1) Cell Lines/Cells. Human cell lines HepG2 and SK-Hep-1 cells were obtained from American Type Culture Collection (ATCC; Manassas, Va.). Cells were cultured in DMEM (Dulbecco's Modified Eagle's Medium) (Mediatech; Mannasas, Va.) with 10% Premium FBS (Lonza, Walkersville, Md.).
(§2) (1) Single Agent Colony Formation Assay. Nobel Agar (1.2 grams; BD; Franklin Lakes, N.J.) was placed in a 100-mL sterile bottle. Sterile water (100 mL) was added and microwaved until the agar boiled. Equal volumes of agar and 2×RPMI medium (ECE Scientific; Doylestown, Pa.) were mixed and 300 μL were transferred to each well in a 24-well flat bottom plate (BD; Franklin Lakes, N.J.). Plates were kept at 4° C. until the agar solidified. Cultures of HepG2 and SK-Hep-1 cells were harvested and resuspended in culture medium at 3.6×10^3 cells/mL. Equal volumes of agar, 2×RPMI, and cell suspension (1:1:1) were mixed in a sterile tube and 500 μL/well were immediately transferred into the 24-well plates. Plates were kept at 4° C. until the agar solidified. Culture medium (500 μL) containing compound or DMSO was added to each well (final DMSO concentration for each treatment was 0.2%). Compound 1 was tested at final concentrations of 0.1, 0.3, 1, 3, 10 and 30 μM. […]
(§3) Significance versus the DMSO control was calculated using One Way ANOVA and Dunnett's Post test or unpaired t tests using GraphPad Prism v5.01.

HepG2 cells = experiment: as above; details: single agent, concentrations of 0.1 to 100 μM
Method: as §1, §2, §3

[2] = system: lenalidomide-sensitive and resistant myeloma cell lines; experiment: Combination effects in lenalidomide-sensitive and resistant myeloma cell lines; details: multiple myeloma cell lines in vitro
Description: Cell lines and cell culture: Cell lines were purchased from American Type Culture Collection (ATCC) and maintained in culture medium recommended by ATCC. […] Multiple myeloma (MM) cell lines that were used or can be used include the following: NCI-H929, LP-1, MM1.s, U266B1, DF-15 and RPMI-8226 human MM-derived cell lines. The […] ® resistant cell lines H929/R1, H929/R2, H929/R3 and H929/R4 were established by continuous exposure of H929 parental cells (H929) to increasing concentrations of […] ® for a minimum of 5 months. The control cell line H929/D was established by continuous exposure of H929 parental cells to 0.1% DMSO.
The number of cells affected by compound treatment was normalized to the DMSO control (100% viability) and the data was imported into the CalcuSyn software (V2.1, Biosoft). Synergism was quantitated by the combination index (CI) using CalcuSyn according to Chou-Talalay's CI method with mathematical modeling and simulations. […] ED50 is the median effect dose at which a 50% growth inhibition is achieved.
Cell density and viability were monitored using the Vi-cell XR cell viability analyzer (Beckman Coulter). […] Cell proliferation was determined after 5 days of treatment by flow cytometry on unfixed cells and using 7-aminoactinomycin D (7AAD) (Molecular Probes, Carlsbad, Calif., USA) exclusion (0.25% final dye concentration) for viability assessment. […]

In the case of `CO[C@H]1CC[C@H](N2C(=O)CNc3ncc(-c4ccc(C(C)(C)O)nc4)nc32)CC1` [Compound 1, 7-(6-(2-hydroxypropan-2-yl)pyridin-3-yl)-1-((1r,4r)-4-methoxycyclohexyl)-3,4-dihydropyrazino-[2,3-b]pyrazin-2(1H)-one], the “Anti proliferative effects, single agent” value [1] was “potent anti proliferative effects”, the Anti-colony forming activity (SK-Hep-1 cells) was “dose-dependent and significant anti-colony forming activity” and the Anti-colony forming activity (HepG2 cells) was “dose-dependent and significant anti-colony forming activity”. The “Dependence of activity on cereblon protein levels” value [2] was “independent of cereblon protein levels”.

With `CCN1C(=O)CNc2ncc(-c3ccc(-c4nc[nH]n4)nc3C)nc21` [Compound 2, 1-ethyl-7-(2-methyl-6-(1H-1,2,4-triazol-3-yl)pyridin-3-yl)-3,4-dihydropyrazino[2,3-b]pyrazin-2(1H)-one] the “Anti proliferative effects, single agent” value [1] was “potent anti proliferative effects” and the “Dependence of activity on cereblon protein levels” value [2] was “independent of cereblon protein levels”.
